{"source": "patent US20090202645A1", "about": "“INTRASYNOVIAL FORMULATIONS OF STANOZOLOL” (ACME DRUGS S.R.L., priority 2008, published 2009)", "key": {"healthy skin fibroblast": {"test_system": "healthy skin fibroblast", "conditions": "cited from earlier work"}, "solubility in water": {"test": "solubility in water", "type": "physicochemical", "conditions": "crystalline substance", "text": "The formulations according to the invention of stanozolol in an aqueous carrier are therefore aqueous suspensions, and it is necessary to prevent the suspended crystals of the drug from causing mechanical lesions such as abrasions and erosions despite the pressures and friction generated by the movement of the joint on the surfaces of the cartilage and synovial membrane."}, "cartilage tissue": {"test_system": "cartilage tissue", "test": "effect on tissue, especially cartilage tissue", "conditions": "unlike the majority of NSAIDs and anti-inflammatory corticosteroids"}, "[1]": {"test": "persistence in the joint after a single intrasynovial injection", "type": "in vivo", "text": "A single intrasynovial injection of said formulations allows the stanozolol to be brought up to and maintained at pharmacologically active concentrations in the joint for 6-7 days, a period which is long enough to produce evident clinical benefits and fully compatible with long-term treatments."}, "[2]": {"test_system": "synovial fibroblasts from rheumatoid synovial tissue", "conditions": "cited from earlier work"}, "[3]": {"test": "persistence in synovial fluid of the typical intrasynovial preparation", "type": "in vivo", "conditions": "micronised stanozolol 5 mg, water for injectables to 1 ml, horses and humans", "experimental": "An example of the formulation of a typical preparation containing stanozolol administrable by the intrasynovial route to horses and humans, which remains in the synovial fluid for 5-7 days, is set out below:\nActive ingredient: micronised stanozolol (having a prevalent population of particles with a diameter of less than 20 μm) 5 mg;\nWater for injectables q.s. to 1 ml."}}, "data": [{"smiles": "C[C@]12Cc3c[nH]nc3C[C@@H]1CC[C@@H]1[C@@H]2CC[C@@]2(C)[C@H]1CC[C@]2(C)O", "note": "[stanozolol]", "values": [{"measurement": "production of PGE2", "setting": "healthy skin fibroblast", "result": "induces the production"}, {"measurement": "production of collagenase", "setting": "healthy skin fibroblast", "result": "induces the production"}, {"measurement": "solubility in water", "setting": "solubility in water", "result": "insoluble in water"}, {"measurement": "degeneration of tissue, especially cartilage tissue", "setting": "cartilage tissue", "result": "does not cause the degeneration of tissue, especially cartilage tissue, but regenerates it"}, {"measurement": "time stanozolol is maintained at pharmacologically active concentrations in the joint", "setting": "[1]", "result": "6-7 days"}, {"measurement": "effect on synovial fibroblasts", "setting": "[2]", "result": "no effect"}, {"measurement": "time remaining in the synovial fluid", "setting": "[3]", "result": "5 to 7", "unit": "days"}]}]}
